# Assays:
# E18 cortical cells = experiment: Cell viability (CellTiterGlo) of cortical cells; type: cell-based, rat; settings: pravastatin 2 μM for 5 days
# Description: The cell viability assay was performed using CellTiterGlo (#G7571; Promega) according to manufacturer’s instructions. Briefly, equal amounts of medium and the mixture of regents A and B were added to the E18 cortical cells (DIV8) cultivated in clear bottom 96-well plates and incubated for 40min. The luminescence was analyzed in a plate reader.
# hippocampal cells = experiment: BDNF-induced neurite branching in hippocampal cells (Sholl analysis); type: cell-based, rat; settings: pravastatin 1 μM/3 days, BDNF 10 ng/ml/3 days
# Description: MG87.TRKB or primary cultured cortical cells were fixed with 4% paraformaldehyde in PBS, and unspecific binding sites were blocked with a blocking buffer (5% normal donkey serum, 1% Bovine serum albumin, 0.1% gelatin, 0.1% Triton X-100, 0.05% Tween-20 in PBS). The MG87.TRKB cells were stained with anti-GFP, while primary cultures were incubated with anti-actin. The fluorescence was obtained following incubation with secondary antibodies. The coverslips were mounted with Dako Fluorescence Mounting Medium (#S3023). Images were acquired with Zeiss LSM710 confocal microscope (63x oil objective).
# For Sholl analysis of cultured hippocampal cells, confocal images were processed using FIJI ImageJ (NIH software), and the number of branches in the 80-μm range from the cell soma were counted using FIJI plugin.
# Sprague-Dawley rats = experiment: BDNF-induced LTP in dentate gyrus of anesthetized rats; type: in vivo, rat; settings: pravastatin 10 mg/kg/day/ in drinking water
# Description: In vivo electrophysiology. Intrahippocampal BDNF infusion was performed as described previously ([Messaoudi et al., 1998]). The experiments were carried out on 20 adult male Sprague-Dawley rats (15 weeks old, Janvier, France). Rats were housed in the animal facility for 1-week prior to the start of drug administration. […]
# For electrophysiological experiments, rats were anesthetized with an intraperitoneal injection of urethane (U2500, Sigma-Aldrich) 1.5 g/kg body weight, positioned in a stereotaxic frame. The body temperature was constantly monitored and maintained at 37°C with an electric heating pad. Holes were drilled in the skull and a concentric bipolar stimulating electrode (Tip separation 500micrometers; SNEX 100; Rhodes Medical Instruments, Woodland Hills, CA) was positioned in the angular bundle for stimulation of the medial perforant path (7.9 mm posterior to bregma, 4.2 mm lateral to the midline, and 2.5 mm below the dura. […]
# Responses were allowed to stabilize for 1 hour at a stimulation intensity that produced a population spike 30% of maximum. […] Evoked responses were recorded for 120 min post infusion. Recorded field potentials were amplified, filtered (0.1 Hz to 10 kHz), and digitized (25 kHz). Electrophysiological data was analyzed using Datawave Technologies Software company. […]
# mice = experiment: Object location memory (OLM) test; type: in vivo, mouse; settings: wild-type mice, pravastatin co-treatment
# Description: Object-location memory (OLM): this test was performed in a square arena (28cm side) with opaque walls containing cues (black stripes or spots). The adult male and female mice (18-22 weeks old) were placed for 3 consecutive days (15min per session) in the arena with two identical objects (table tennis balls glued to caps of 50ml Falcon tubes) in the same position throughout the sessions (pretest).
# TRKB:PLC-γ1 interaction = TRKB:PLC-γ1 interaction ELISA in cortical cells; type: cell-based, rat; settings: pravastatin 1 μM/3 days
# Description: The TRKB:pY (phosphorylated TRKB), TRKB:PLC-γ1, PLC-γ1:pTRKB.Y816 interactions and were determined by ELISA, based on the general method described in literature ([Antila et al., 2014]; [Fred et al., 2019]), with minor adjustments. Briefly, white 96-well plates (OptiPlate 96F-HB, Perkin Elmer) were coated with capturing anti-TRKB or PLC-γ1 antibody (1:1000) in carbonate buffer (pH = 9.8) overnight (ON) at 4°C. Following a blocking step with 2%BSA in TBS-T (2 h, RT), samples were incubated ON at 4°C. The incubation with antibody against pTRKB.Y816, PLC-γ1 or pY (1:2000, ON, 4°C) was followed by HRP-conjugated anti-Rb IgG (1:5000, 2h, RT) or HRP-conjugated streptavidin (1:10000, 2h, RT). Finally, the chemiluminescent signal generated by the reaction with ECL was analyzed in a plate reader (Varioskan Flash, Thermo Scientific).
# TRKA = molecular target: T1, TRKA (Homo sapiens, UniProt P04629); experiment: Cell-free ligand binding assay, TRKA from MG87 cells; settings: compared to TRKB
# T1 construct: expressed in transfected cells; host or cells: MG87.TRKA (NIH 3T3 mouse fibroblasts stably expressing TRKA)
# TRKB [1] = molecular target: T2, TRKB (Mus musculus, UniProt P15209); experiment: In situ proximity ligation assay (PLA) in TRKB-expressing N2A cells; type: cell-based; design: expressed in transfected cells; host or cells: N2A; settings: biotinylated fluoxetine 10 μM/15 min
# Description: Proximity ligation assay was done with Duolink In Situ Red Starter Kit Mouse/Goat (#DUO92103, Sigma-Aldrich), following manufacturer’s instructions. […] Cells were fixed with PFA 4% for 15 min, washed, and incubated in Duolink blocking buffer for 1h at 37°C. Then, the coverslips were incubated with streptavidin-conjugated HRP (1:5000 in Duolink antibody diluent) for 45 min at room temperature. After washing twice in Duolink washing buffer A, samples were incubated overnight at 4°C with a mix of goat anti-TRKB (1:1000, #AF1494, R&D System) and mouse anti-HRP (1:1000, #200-3138-0100, Rockland Immunochemicals) diluted in Duolink antibody diluent. After washing in Duolink washing buffer A, samples were incubated for 1h at 37°C with a mix of minus and plus probes diluted 1:5 in Duolink antibody diluent. Then, ligation of probes with connector oligo was done by washing the samples in washing buffer A, and incubating for 30min at 37°C with ligase (25 U/ml) diluted in the Duolink ligation buffer. Amplification was done by washing the samples in the washing buffer A, and incubating for 100min at 37°C with polymerase (125 U/ml) diluted in the amplification buffer. Coverslips were washed in buffer B, then in buffer B diluted 1:100 in milliQ water, and mounted in Duolink in situ mounting medium with DAPI. All incubation steps were done in a humidified chamber. […]
# TRKB [2] = molecular target: T2, TRKB; experiment: Cell-free ligand binding assay on immobilised TRKB from HEK293T lysates; design: wild-type GFP-tagged full length TRKB or the GFP-tagged Y433F TRKB mutant; host or cells: HEK293T; settings: read-out: Kd of biotinylated FLX binding to immunoprecipitated TRKB; biotinylated ligand 0-100 μM
# Description: The cell-free assays (binding assays) were performed in white 96-well plates, based on the protocol used for western-blotting or ELISA ([Baeza-Raja et al., 2016]; [Das et al., 2015]). The plates were precoated with anti-GFP, anti-FLAG, anti-TRK or anti-TRKB antibody (1:1000) in carbonate buffer (pH 9.8), ON at 4°C. Following blocking with 3% BSA in PBS buffer (2 h at RT), 120 ug of total protein from each sample (of lysates from HEK293T cells transfected to overexpress GFP-TRKB.wt or GFP-TRKB.Y433F) were added and incubated overnight at 4°C under agitation. […] The luminescence was determined via HRP-conjugated streptavidin (1:10000, 1h, RT) activity reaction with ECL by a plate reader. The luminescence signal from blank wells (containing all the reagents but the sample lystates, substituted by the blocking buffer) was used as background. The specific signal was then calculated by subtracting the values of blank wells from the values of the samples with matched concentration of the biotinylated ligand. For Figure 2E, the precipitated TRKB.wt or Y433F was incubated with tritiated imipramine (0-30μM) and the radioactive emission of the ligand was determined by scintillation (OptiPhase Supermix cocktail: #1200-439; MicroBeta2, Perkin-Elmer). The scintillation signal from blank wells was used as background, and the specific signal was then calculated by subtracting the values of blank wells from the values of the samples with matched concentration of the radioactive ligand.
# T2 sequence (P15209 32-821): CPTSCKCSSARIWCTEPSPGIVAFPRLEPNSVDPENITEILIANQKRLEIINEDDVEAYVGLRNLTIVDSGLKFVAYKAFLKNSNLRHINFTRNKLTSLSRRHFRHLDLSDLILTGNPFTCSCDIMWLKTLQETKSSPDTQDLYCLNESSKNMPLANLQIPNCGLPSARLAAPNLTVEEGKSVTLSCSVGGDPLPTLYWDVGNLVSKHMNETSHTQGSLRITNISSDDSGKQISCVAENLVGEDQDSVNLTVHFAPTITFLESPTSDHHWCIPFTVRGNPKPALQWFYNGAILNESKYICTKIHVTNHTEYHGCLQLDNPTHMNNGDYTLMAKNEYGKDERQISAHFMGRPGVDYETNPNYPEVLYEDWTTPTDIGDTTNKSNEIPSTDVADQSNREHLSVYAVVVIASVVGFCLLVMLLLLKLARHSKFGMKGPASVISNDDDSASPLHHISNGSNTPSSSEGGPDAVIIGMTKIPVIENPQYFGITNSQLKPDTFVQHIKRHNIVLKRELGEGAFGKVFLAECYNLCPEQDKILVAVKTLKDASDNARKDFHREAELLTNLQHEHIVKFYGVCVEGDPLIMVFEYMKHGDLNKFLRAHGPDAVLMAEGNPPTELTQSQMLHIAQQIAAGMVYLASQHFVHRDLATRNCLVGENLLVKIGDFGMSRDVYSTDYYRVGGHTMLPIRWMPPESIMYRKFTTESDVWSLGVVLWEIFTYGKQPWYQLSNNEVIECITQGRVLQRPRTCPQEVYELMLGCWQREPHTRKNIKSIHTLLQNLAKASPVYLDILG
# T1 sequence (P04629 33-796): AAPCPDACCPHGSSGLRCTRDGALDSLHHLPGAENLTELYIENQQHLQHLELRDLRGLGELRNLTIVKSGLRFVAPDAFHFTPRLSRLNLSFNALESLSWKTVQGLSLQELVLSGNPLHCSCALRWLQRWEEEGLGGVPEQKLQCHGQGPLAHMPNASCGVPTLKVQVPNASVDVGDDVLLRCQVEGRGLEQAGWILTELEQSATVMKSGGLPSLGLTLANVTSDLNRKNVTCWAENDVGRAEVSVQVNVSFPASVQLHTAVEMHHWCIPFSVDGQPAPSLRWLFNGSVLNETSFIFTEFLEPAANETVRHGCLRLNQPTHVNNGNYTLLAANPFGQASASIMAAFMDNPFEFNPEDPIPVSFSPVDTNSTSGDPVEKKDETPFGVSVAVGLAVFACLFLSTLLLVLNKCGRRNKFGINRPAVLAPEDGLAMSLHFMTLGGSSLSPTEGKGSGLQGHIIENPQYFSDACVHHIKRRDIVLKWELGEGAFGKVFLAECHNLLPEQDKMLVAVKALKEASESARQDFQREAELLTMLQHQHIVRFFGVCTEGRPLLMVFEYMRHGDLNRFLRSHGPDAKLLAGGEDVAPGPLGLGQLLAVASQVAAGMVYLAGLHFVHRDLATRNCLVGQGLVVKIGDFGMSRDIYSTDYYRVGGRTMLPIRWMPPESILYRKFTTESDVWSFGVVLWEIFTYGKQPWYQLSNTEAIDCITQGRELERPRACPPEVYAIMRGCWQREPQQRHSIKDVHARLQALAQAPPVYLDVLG
Structure (SMILES),neuronal survival (E18 cortical cells),effect on BDNF-induced neurite branching (hippocampal cells),effect on BDNF-induced increase in synaptic strength (LTP) (Sprague-Dawley rats),"effect on R,R-HNK-improved object location memory (mice)",effect on BDNF-induced TRKB-PLC-γ1 interaction (TRKB:PLC-γ1 interaction),interaction of biotinylated fluoxetine with TRKA (TRKA),PLA signal between biotinylated FLX and TRKB (TRKB [1]),Kd (TRKB [2]) [nM]
CC[C@H](C)C(=O)O[C@H]1C[C@H](O)C=C2C=C[C@H](C)[C@H](CC[C@@H](O)C[C@@H](O)CC(=O)O)[C@H]21 [pravastatin],reduced neuronal survival,prevented,partially prevented,prevented,prevented,–,–,–
CN(CCC(Oc1ccc(C(F)(F)F)cc1)c1ccccc1)C(=O)CCOCCOCCOCCOCCNC(=O)CCCC[C@@H]1SC[C@@H]2NC(=O)N[C@@H]21 (some centres unmarked) [biotinylated FLX],–,–,–,–,–,negligible,robust PLA signal,2420
